The source made the active and inactive calls. The calls are words filed in the database; no cut-off is given here.
Tests used:
MDA-MB-231 [1] = assay: Induction of apoptosis in human MDA-MB-231 cells assessed as increase in activation of caspase level incubated for 8 hrs by Western blotting analysis; format: functional, cell-based; conditions: dose 5-20 nM
HCT-116 = assay: Antiproliferative activity against human HCT-116 cells assessed as inhibition of cell growth measured after 48 hrs by MTT assay; format: functional, cell-based; conditions: HCT-116, 48 h
[2] = Selectivity index, ratio of IC50 for cytotoxicity against human MCF-10A cells to IC50 for antiproliferative activity against human MDA-MB-231 cells; format: toxicity, cell-based; conditions: MCF-10A cells versus MDA-MB-231 cells, read-out: Ratio IC50
[3] = Drug localization in mitochondria of human MDA-MB-231 cells at 1 uM incubated for 1 hr measured after 40 mins by mito-tracker probe based confocal laser scanning microscopic analysis; format: ADME; conditions: mda-mb-231, 1.667 h, time 100 min
[4] = Drug localization in mitochondria of human HCT-116 cells at 1 uM incubated for 1 hr measured after 40 mins by mito-tracker probe based confocal laser scanning microscopic analysis; format: ADME; conditions: hct-116, 1.667 h, time 100 min
MDA-MB-231 [5] = assay: Antiproliferative activity against human MDA-MB-231 cells assessed as effect on NO level at 25 uM incubated for 2 hrs; format: functional, cell-based
MDA-MB-231 [6] = assay: Antiproliferative activity against human MDA-MB-231 cells assessed as effect on NO level at 20 nM measured after 24 hrs in presence of PTIO by MTT assay; format: functional, cell-based
MDA-MB-231 [7] = assay: Induction of ROS production in human MDA-MB-231 cells measured after 24 hrs by DCFH-DA staining based fluorescence microscopic analysis; format: functional, cell-based; conditions: dose 5-20 nM
MDA-MB-231 [8] = assay: Antiproliferative activity against human MDA-MB-231 cells assessed as induction of ROS production at 20 nM in presence of NAC measured after 24 hrs by MTT assay; format: functional, cell-based
MDA-MB-231 [9] = assay: Induction of apoptosis in human MDA-MB-231 cells assessed as viable cells at 5 nM incubated for 24 hrs by Annexin V-FITC/PI staining based flow cytometric analysis (reference value: 90.1%); format: functional; conditions: read-out: Activity
MDA-MB-231 [10] = assay: Induction of apoptosis in human MDA-MB-231 cells assessed as early apoptotic cells at 10 nM incubated for 24 hrs by Annexin V-FITC/PI staining based flow cytometric analysis (reference value: 4.90%); format: functional
MDA-MB-231 [11] = assay: Induction of apoptosis in human MDA-MB-231 cells assessed as early apoptotic cells at 20 nM incubated for 24 hrs by Annexin V-FITC/PI staining based flow cytometric analysis (reference value: 4.90%); format: functional
MDA-MB-231 [12] = assay: Induction of apoptosis in human MDA-MB-231 cells assessed as late apoptotic cells at 5 nM incubated for 24 hrs by Annexin V-FITC/PI staining based flow cytometric analysis (reference value: 4.90%); format: functional
MDA-MB-231 [13] = assay: Induction of apoptosis in human MDA-MB-231 cells assessed as necrotic cells at 5 nM incubated for 24 hrs by Annexin V-FITC/PI staining based flow cytometric analysis (reference value: 0.11%); format: functional
MDA-MB-231 [14] = assay: Induction of apoptosis in human MDA-MB-231 cells assessed as necrotic cells at 10 nM incubated for 24 hrs by Annexin V-FITC/PI staining based flow cytometric analysis (reference value: 0.11%); format: functional
MDA-MB-231 [15] = assay: Induction of apoptosis in human MDA-MB-231 cells assessed as total apoptotic cells at 5 to 20 nM incubated for 24 hrs by Annexin V-FITC/PI staining based flow cytometric analysis (Rvb =10.03%); format: functional; conditions: dose 5-20 nM
MDA-MB-231 [16] = assay: Induction of cell cycle arrest in human MDA-MB-231 cells assessed as accumulation of cells at G1 phase at 5 nM measured after 24 hrs by PI staining based flow cytometric analysis (Rvb =58%); format: functional
MDA-MB-231 [17] = assay: Induction of cell cycle arrest in human MDA-MB-231 cells assessed as accumulation of cells at G1 phase at 20 nM measured after 24 hrs by PI staining based flow cytometric analysis (Rvb =58%); format: functional
MDA-MB-231 [18] = assay: Induction of cell cycle arrest in human MDA-MB-231 cells assessed as accumulation of cells at S phase at 5 nM measured after 24 hrs by PI staining by flow cytometric analysis (Rvb =24.1%); format: functional
MDA-MB-231 [19] = assay: Induction of cell cycle arrest in human MDA-MB-231 cells assessed as accumulation of cells at S phase at 10 nM measured after 24 hrs by PI staining based flow cytometric analysis (Rvb =24.1%); format: functional
MDA-MB-231 [20] = assay: Induction of cell cycle arrest in human MDA-MB-231 cells assessed as accumulation of cells at G2 phase at 5 nM measured after 24 hrs by PI staining by flow cytometric analysis (Rvb =18.1%); format: functional
MDA-MB-231 [21] = assay: Induction of cell cycle arrest in human MDA-MB-231 cells assessed as accumulation of cells at G2 phase at 10 nM measured after 24 hrs by PI staining by flow cytometric analysis (Rvb =18.1%); format: functional
MDA-MB-231 [22] = assay: Induction of cell cycle arrest in human MDA-MB-231 cells assessed as accumulation of cells at G2 phase at 20 nM measured after 24 hrs by PI staining by flow cytometric analysis (Rvb =18.1%); format: functional
MDA-MB-231 [23] = assay: Induction of apoptosis in human MDA-MB-231 cells assessed as increase in Bax level incubated for 24 hrs by Western blotting analysis; format: functional, cell-based; conditions: dose 5-20 nM
MDA-MB-231 [24] = assay: Induction of apoptosis in human MDA-MB-231 cells assessed as increase in Bad level incubated for 8 hrs by Western blotting analysis; format: functional, cell-based; conditions: dose 5-20 nM
MDA-MB-231 [25] = assay: Induction of apoptosis in human MDA-MB-231 cells assessed as increase in cleaved caspase-3 level incubated for 8 hrs by Western blotting analysis; format: functional, cell-based; conditions: dose 5-20 nM
MDA-MB-231 [26] = assay: Induction of apoptosis in human MDA-MB-231 cells assessed as increase in Bcl2 level incubated for 8 hrs by Western blotting analysis; format: functional, cell-based; conditions: dose 5-20 nM
MDA-MB-231 [27] = assay: Induction of apoptosis in human MDA-MB-231 cells assessed as increase in cytoplasmic CytC level at 5 to 20 nM incubated for 8 hrs by Western blotting analysis; format: functional, cell-based; conditions: dose 5-20 nM
MDA-MB-231 [28] = assay: Induction of apoptosis in human MDA-MB-231 cells assessed as effect on ANT level at 5 to 20 nM incubated for 8 hrs by Western blotting analysis; format: functional, cell-based; conditions: dose 5-20 nM
[29] = Toxicity in BALB/C mouse xenografted with human MDA-MB-231 cells assessed as lung damage at 2.5 to 5 mg/kg, ip administered every 2 days measured after 3 weeks by H and E staining based analysis; format: organism-based; conditions: in vivo, 504 h, dose 2.5-5 mg/kg
[30] = Toxicity in BALB/C mouse xenografted with human MDA-MB-231 cells assessed as liver damage at 2.5 to 5 mg/kg, ip administered every 2 days measured after 3 weeks by H and E staining based analysis; format: organism-based; conditions: in vivo, 504 h, dose 2.5-5 mg/kg
[31] = Toxicity in BALB/C mouse xenografted with human MDA-MB-231 cells assessed as spleen damage at 2.5 to 5 mg/kg, ip administered every 2 days measured after 3 weeks by H and E staining based analysis; format: organism-based; conditions: in vivo, 504 h, dose 2.5-5 mg/kg
MDA-MB-231 [32] = assay: Antitumor activity against human MDA-MB-231 cells xenografted in BALB/C mouse assessed as increase in ROS level in tumor at 2.5 to 5 mg/kg, ip administered every 2 days measured after 3 weeks by DHE staining based analysis; format: functional, organism-based; conditions: dose 2.5-5 mg/kg

CCN(CC)c1ccc2cc(C(=O)OCCCCCOc3cc4ccc(=O)oc4cc3OCCCCCCOc3no[n+]([O-])c3S(=O)(=O)c3ccccc3)c(=O)oc2c1
Activity (MDA-MB-231 [1]): Dose-Dependent Effect | IC50 (HCT-116): 4.14 µM | selectivity ratio [2]: > 6250 | Drug uptake [3]: Active | Drug uptake [4]: Active | Activity (MDA-MB-231 [5]): Active | Activity (MDA-MB-231 [6]): inactive | Activity (MDA-MB-231 [7]): Dose-Dependent Effect | Activity (MDA-MB-231 [8]): inactive | viability at 0.005 µM (MDA-MB-231 [9]): 67.1% | Activity (MDA-MB-231 [10]): 21.9% | Activity (MDA-MB-231 [11]): 31.9% | Activity (MDA-MB-231 [12]): 20.4% | Activity (MDA-MB-231 [13]): 0.26% | Activity (MDA-MB-231 [14]): 0.83% | Activity (MDA-MB-231 [15]): 71.69% | Activity (MDA-MB-231 [16]): 55.3% | Activity (MDA-MB-231 [17]): 57.9% | Activity (MDA-MB-231 [18]): 29.3% | Activity (MDA-MB-231 [19]): 25.9% | Activity (MDA-MB-231 [20]): 12.8% | Activity (MDA-MB-231 [21]): 13.8% | Activity (MDA-MB-231 [22]): 21.4% | Activity (MDA-MB-231 [23]): Dose-Dependent Effect | Activity (MDA-MB-231 [24]): Dose-Dependent Effect | Activity (MDA-MB-231 [25]): Dose-Dependent Effect | Activity (MDA-MB-231 [26]): Dose-Dependent Effect | Activity (MDA-MB-231 [27]): Active | Activity (MDA-MB-231 [28]): inactive | Activity [29]: Non-Toxic | Activity [30]: Non-Toxic | Activity [31]: Non-Toxic | Activity (MDA-MB-231 [32]): Active
